Data: ChEMBL document CHEMBL1156829 (Proc Natl Acad Sci U S A, 2008)
Square brackets hold non-standard residues; d marks the D form. Peptide text beside a SMILES is read from it. * marks the point of attachment. NHCH2CH2OH = OCCN*; For = O=C*

Columns and labels:
[1] = tested on: Plasmodium falciparum; assay: NOVARTIS: Inhibition of Plasmodium falciparum 3D7 (drug-susceptible) proliferation in erythrocyte-based infection assay; type: functional, organism-based; settings: Plasmodium falciparum, 3D7
[2] = NOVARTIS: Cytotoxicity against human hepatocellular carcinoma cell line (Huh7); type: toxicity, cell-based, Huh-7; settings: Huh7 cells (hepatocellular carcinoma cell line)
[3] = tested on: Plasmodium falciparum; assay: NOVARTIS: Inhibition of Plasmodium falciparum W2 (drug-resistant) proliferation in erythrocyte-based infection assay; type: functional, organism-based; settings: Plasmodium falciparum, W2; read-out: EC50

SMILES	EC50 [1]	CC50 [2]	EC50 [3]
CC(C)(C)c1csc(NC(=O)c2ccc(S(=O)(=O)N3CCCCC3)cc2)n1	> 12500 nM	49.1 µM	175 nM
COc1ccccc1NC(=O)N(Cc1ccccc1)C(C)c1nc2ccccc2c(=O)n1-c1cc(C)ccc1C (stereo not drawn)	451 nM	> 6.06 µM	< 6.88 nM
CCOC(=O)c1cccc(NC(=O)CC2C(=O)N(c3ccc(F)cc3)C(=O)N2CCC(C)C)c1 (stereo not drawn)	202 nM	> 100 µM	101 nM
COc1cc(OC)c(Br)c(-n2c(C(C)N(CCC(C)C)C(=O)c3ccccc3C)nc3ccccc3c2=O)c1 (stereo not drawn)	> 1250 nM	> 10 µM	< 33.7 nM
COc1ccc(-c2noc(-c3cccc(I)c3)n2)cc1OC	> 1740 nM	> 13.6 µM	> 873 nM
Cn1nccc1C(OCC(=O)N1CCOCC1)c1ccc(F)cc1 (stereo not drawn)	134 nM	> 10 µM	89.2 nM
CCN1CCN(C2CCN(Cc3cc4ccc(F)cc4n(CCSc4ccccc4)c3=O)CC2)CC1	715 nM	5.48 µM	560 nM
Nc1ncc(Br)cc1S(=O)(=O)NCCC(=O)N1CC=C(c2ccccc2)CC1	384 nM	48.9 µM	1020 nM
FC(F)(F)c1cccc(Nc2nc3nonc3nc2Nc2ccc(Br)cc2)c1	7620 nM	7.13 µM	5200 nM
Cc1cc(Nc2cc(Cl)cc(Cl)c2)n2nc(C)nc2n1	1330 nM	> 100 µM	1870 nM
CC(C)C[C@@H](NC(=O)[C@H](C)NC(=O)CNC(=O)[C@@H](NC=O)C(C)C)C(=O)N[C@@H](C)C(=O)N[C@@H](C(=O)N[C@H](C(=O)N[C@@H](C(=O)N[C@@H](Cc1c[nH]c2ccccc12)C(=O)N[C@H](CC(C)C)C(=O)N[C@@H](Cc1c[nH]c2ccccc12)C(=O)N[C@H](CC(C)C)C(=O)N[C@@H](Cc1c[nH]c2ccccc12)C(=O)N[C@H](CC(C)C)C(=O)N[C@@H](Cc1c[nH]c2ccccc12)C(=O)NCCO)C(C)C)C(C)C)C(C)C (For-VGA[dL]A[dV]V[dV]W[dL]W[dL]W[dL]W-NHCH2CH2OH)	2890 nM	98.8 µM	2990 nM
O=C1N(Cc2cc3ccccc3s2)CC2CN(Cc3ccoc3)CCN12 (stereo not drawn)	1080 nM	> 10 µM	619 nM
Nc1ccc(-c2nc3cc(Cc4ccc5[nH]c(-c6ccc(N)cc6)nc5c4)ccc3[nH]2)cc1	243 nM	17.9 µM	63.4 nM
O[Si](CCCN1CCCCC1)(c1ccccc1)C1CCCCC1 (stereo not drawn)	23.6 nM	33 µM	12.1 nM
O=C1[C@@H]2CCCN2C(=O)C(c2ccc(Oc3ccccc3)cc2)N1CCc1ccccn1 (stereo partly drawn)	> 1250 nM	> 10 µM	< 30.4 nM
COc1ccc(-c2cnc3ccc(NC4CCOCC4)nn23)cc1OC	> 933 nM	> 10 µM	> 1620 nM
COc1cc(NC(C)CCCN(Cc2ccccc2OC)C(=O)c2ccc(C)c([N+](=O)[O-])c2)c2ncccc2c1 (stereo not drawn)	873 nM	4.64 µM	555 nM
COCCCNc1nc2nonc2nc1N(C)C1CCOCC1	> 682 nM	> 10 µM	> 1250 nM
O=[N+]([O-])c1ccc(-c2ccc(C=NNc3ccccn3)o2)cc1	2430 nM	> 100 µM	2300 nM
Cn1nc(C(=O)NCc2ccccc2)c2c1CCN(Cc1cccc(O)c1)C2	> 6500 nM	> 100 µM	935 nM
C[n+]1c(-c2ccccc2)cc(-c2ccccc2)cc1-c1ccccc1	> 1020 nM	> 10 µM	> 590 nM
COc1ccc2[nH]c3c(NCCN4CCCCC4)ncnc3c2c1	785 nM	28.6 µM	976 nM

SMILES	EC50 [1]	CC50 [2]	EC50 [3]
CCOc1ccc(NC(=O)CSc2nc3cc(OCC)ccc3[nH]2)cc1	900 nM	> 13.8 µM	> 1250 nM
CC(C)NCC(O)c1ccc2ccccc2c1 (stereo not drawn) [PRONETALOL]	455 nM	13.1 µM	366 nM
O=C(CN1CCCC1)Nc1c2c(nc3c1CCC3)CCC2	> 1250 nM	> 10 µM	> 462 nM
CC(=O)c1ccc(N2C(C)c3nc4ccccc4c(=O)n3C2c2cccc(O)c2)cc1 (stereo not drawn)	1050 nM	> 10 µM	646 nM
CNC1=C(N(C(C)=O)c2ccc(Br)cc2)C(=O)c2ccccc2C1=O	162 nM	> 10 µM	156 nM
N=c1n(Cc2ccccc2)c2ccccc2n1CC(O)c1ccc(Cl)cc1 (stereo not drawn)	257 nM	11.1 µM	50.6 nM
CCOC(=O)C1=C(C)NC(=Cc2cc(C)n(-c3cccc(Br)c3)c2C)C1=O	2880 nM	> 100 µM	805 nM
O=C(NCc1ccc2c(c1)OCO2)C1CNCC1c1ccc(C(F)(F)F)cc1 (stereo not drawn)	325 nM	54.3 µM	362 nM
N#Cc1ccccc1Cn1ccc(=NCc2ccccc2)cc1	1060 nM	> 10 µM	> 465 nM
O=[N+]([O-])c1ccc(S(=O)(=O)N2CCN(C(=S)NCC3CCCO3)CC2)cc1 (stereo not drawn)	136 nM	> 100 µM	101 nM
COc1cccc(-c2ccc(O)c(CNCCc3cccc(F)c3)c2)n1	1090 nM	> 10 µM	732 nM
COc1cc(/C=C(\C#N)c2nc3ccccc3[nH]2)ccc1OCc1ccccc1	728 nM	> 10 µM	1210 nM
COc1ccc(OC)c(CN2CCC3(CC2)CC3C(=O)NCCc2ccccc2OC)c1 (stereo not drawn)	> 3170 nM	> 100 µM	1190 nM
CCOC(=O)c1ccc(N2CCN(c3cc(C)ccc3C)CC2)c(NC(=O)Nc2ccc(Cl)cc2)c1	> 3540 nM	> 100 µM	691 nM
COc1cc2nc(NCCN3CCOCC3)n3nc(-c4ccccc4)nc3c2cc1OC	114 nM	> 10 µM	134 nM
CNCC(O)c1ccc(Cl)c(Cl)c1 (stereo not drawn)	837 nM	> 10 µM	99.1 nM
COc1ccc(Cn2c(C)nc3cc(NC(=O)Nc4ccccc4)c(C)nc32)cc1	373 nM	> 100 µM	110 nM
N=c1c2c(n(Cc3ccc([N+](=O)[O-])cc3)c3c1CCC3)CCCC2	121 nM	> 100 µM	130 nM
CCCCCCN(C(=O)c1cccc([N+](=O)[O-])c1)C(CC)c1nc2ccccc2c(=O)n1-c1ccccc1OC (stereo not drawn)	983 nM	> 6.45 µM	355 nM
COc1ccc(C2=C(c3ccc(OC)cc3)C3(c4ccccc4)C(=O)C2(c2ccccc2)C2C(=O)N(c4ccccc4[N+](=O)[O-])C(=O)C23)cc1 (stereo not drawn)	1190 nM	> 100 µM	580 nM
CCOc1ccccc1CN1CCCC(C(=O)N2CCCCCC2)C1 (stereo not drawn)	4400 nM	37.4 µM	1420 nM
CCCCCCCn1c2c(c(=N)c3c1CCC3)CCCC2	69.3 nM	2.73 µM	91.4 nM

SMILES	EC50 [1]	CC50 [2]	EC50 [3]
CC(C)CC(N)C(=O)N1CCc2nc(Cc3ccc(F)cc3Cl)sc2C1 (stereo not drawn)	> 1250 nM	> 10 µM	471 nM
CCc1ccccc1N(CC(=O)NC1CCCCC1)C(=O)CCC(=O)Nc1ccccn1	835 nM	> 100 µM	1270 nM
CCOC(=O)c1c(-c2ccccc2)oc2c1C(=O)c1ccccc1C2=O	1130 nM	> 100 µM	1350 nM
CS(=O)(=O)c1ccccc1S(=O)(=O)N1CCC(NC(=O)c2ccccc2Cl)(C(=O)O)CC1	> 1250 nM	> 10 µM	> 725 nM
CC(C)(C)Cc1ccc(OCCCC(=O)Nc2ccc(Cl)c(N)c2)c(CC(C)(C)C)c1	1730 nM	> 100 µM	848 nM
COc1cccc(/C=C2\SC(=Nc3ccccc3)NC2=O)c1OC	521 nM	> 100 µM	1100 nM
COc1cc(OC)c(NC(=O)C2c3ccccc3C(=O)N(C)C2c2cccs2)cc1Cl (stereo not drawn)	320 nM	> 100 µM	310 nM
Cc1cccc(Nc2nc3nonc3[nH]c2=NN=Cc2cccs2)c1C	8650 nM	23.3 µM	4300 nM
CC(=NNc1nc(-c2ccccc2O)nc2ccccc12)c1ccccc1O	742 nM	> 100 µM	206 nM
O=C(Nc1ccc(Cl)cc1)N1CCN(c2ccc3nncn3n2)CC1	2060 nM	> 100 µM	1380 nM
CC(=O)N(C1=C(N2CCC(C)CC2)C(=O)c2ccccc2C1=O)c1cccc(F)c1	241 nM	66.4 µM	233 nM
CC(=O)CSc1nnc(-c2ccncc2)n1C	> 1250 nM	> 12.7 µM	310 nM
O=C(Cc1ccccc1)NCc1ccc(Nc2c(-c3cccnc3)nc3ccccn23)cc1	34.2 nM	> 10 µM	< 6.13 nM
O=C1Nc2ccc(S(=O)(=O)Nc3ccc(NS(=O)(=O)c4ccc5c6c(cccc46)C(=O)N5)cc3)c3cccc1c23	> 1180 nM	> 8.12 µM	> 1250 nM
COc1nc(Nc2ccc(C(C)C)cc2)nc(OC)n1	677 nM	56.9 µM	935 nM
CCOC(=O)C1=C(C)NC2=C(C(=O)C(C(=O)OCC)C(c3ccccc3OC)C2)C1c1ccc(OC)c(OC)c1 (stereo not drawn)	83.1 nM	> 100 µM	74.4 nM
O=C(Nc1ccc(C2=NCCCN2)cc1)c1ccc(C(=O)Nc2ccc(C3=NCCCN3)cc2)cc1	120 nM	> 100 µM	93.2 nM
CC=Cc1n(C)c2ccccc2[n+]1C	613 nM	> 100 µM	129 nM
COc1cccc2c1C(=O)c1c(O)c3c(c(O)c1C2=O)CC(O)(C(=O)CO)CC3OC1CC(N)C(O)C(C)O1 (stereo not drawn)	169 nM	5.25 µM	180 nM
CSc1nc(SC)c2c3c(sc2n1)CN(C)CC3	750 nM	> 100 µM	881 nM
O=C1CN(C(=O)CCC2CCCC2)C(c2ccc(F)cc2)c2cc(F)ccc2N1 (stereo not drawn)	666 nM	60.3 µM	230 nM
COc1ccc(C(=O)C(C)[n+]2cccc3ccc4cccnc4c32)cc1 (stereo not drawn)	195 nM	> 10 µM	> 577 nM
